Source: patent US6011135A, “Triazine thiol derivative having a perfluoro group, method for producing same and use of same” (Iwate University, priority 1997, dated 2000)

Key:
Format in all cases: physicochemical
[1] = Oxidation potential, yardstick for easiness of tribological and electrolytic polymerization
Text: (§1) In Table 5 below, there is shown the effectiveness of 6-perfluoro alkylamino-1,3,5-triazine-2,4-dithiol of examples of the present invention by comparing the dissociation constants, oxidation potential and critical micelle concentration with those of the comparative example.
(§2) With respect to the dissociation constants (pKa1, pKa2), which may function as a yardstick for reactivity, all the examples of the present invention have lower dissociation constants than the comparative example. Accordingly, it is understood that the triazine thiol derivative having a perfluoro group of the present invention has an excellent reactivity. With regard to the oxidation potential which functions as a yardstick for easiness of tribological polymerization and electrolytic polymerization, each example has a lower oxidation potential than the comparative example. This means that an oxidative polymerization of the triazine thiol derivative having a perfluoro group according to the present invention is easier than that of the comparative example. Further, the critical micelle concentration of every example is lower than that of the comparative example. This means that micelle formation is easier in the examples and thus, the triazine thiol derivative having a perfluoro group according to the present invention has an excellent surface activity.

[2] = Solubility of 6-perfluoro alkylamino-1,3,5-triazine-2,4-dithiol to various solvents; design: key to Solubility, Toluene: X: did not solved; Δ: slightly solved (1 wt % or less); .largecircle.: sufficiently solved (1-10 wt %); .circleincircle.: excellently solved (10 wt % or more)
[3] = Dissociation constants (pKa1, pKa2), yardstick for reactivity; details: dissociation constant
Text: as §1, §2

[4] = Critical micelle concentration (surface activity)
Text: as §1, §2

| SMILES | Oxidation potential [1] [V vs. Ag^+ /Ag] | Solubility, MEK [2] | Solubility, Acetic ether [2] | Solubility, Ethanol [2] | Solubility, Toluene [2] | Solubility, Water [2] | pKa1 [3] | pKa2 [3] | Critical micelle concentration [4] [mol/L] |
| --- | --- | --- | --- | --- | --- | --- | --- | --- | --- |
| CCCCN(CC(F)(F)C(F)(F)C(F)(F)C(F)(F)C(F)(F)C(F)(F)C(F)(F)F)c1nc(S)nc(S)n1 [Example 12] | 0.46 | .circleincircle. (excellently solved (10 wt % or more)) | .largecircle. (sufficiently solved (1-10 wt %)) | .largecircle. (sufficiently solved (1-10 wt %)) | .largecircle. (sufficiently solved (1-10 wt %)) | .largecircle. (sufficiently solved (1-10 wt %)) | 7.4 | 10.4 | 2.1e-05 |
| FC(F)(F)C(F)(F)C(F)(F)C(F)(F)C(F)(F)C(F)(F)C(F)(F)c1ccc(Nc2nc(S)nc(S)n2)cc1 [Comparative example, reference compound] | 0.90 | Δ (slightly solved (1 wt % or less)) | Δ (slightly solved (1 wt % or less)) | Δ (slightly solved (1 wt % or less)) | X | Δ (slightly solved (1 wt % or less)) | 8.3 | 10.7 | 0.022 |
| FC(F)(F)C(F)(F)C(F)(F)C(F)(F)C(F)(F)C(F)(F)C(F)(F)CN(c1nc(S)nc(S)n1)C1CCCCC1 [Example 13] | 0.78 | .circleincircle. (excellently solved (10 wt % or more)) | .largecircle. (sufficiently solved (1-10 wt %)) | .largecircle. (sufficiently solved (1-10 wt %)) | .largecircle. (sufficiently solved (1-10 wt %)) | .largecircle. (sufficiently solved (1-10 wt %)) | 6.2 | 10.6 | 5.6e-05 |
| CCCCN(CC(F)(F)C(F)(F)C(F)(F)C(F)(F)C(F)(F)C(F)(F)C(F)(F)C(F)(F)C(F)(F)C(F)(F)F)c1nc(S)nc(S)n1 [Example 14] | 0.56 | .circleincircle. (excellently solved (10 wt % or more)) | .largecircle. (sufficiently solved (1-10 wt %)) | .largecircle. (sufficiently solved (1-10 wt %)) | .largecircle. (sufficiently solved (1-10 wt %)) | .largecircle. (sufficiently solved (1-10 wt %)) | 7.5 | 9.8 | 1.1e-05 |
| FC(F)(F)C(F)(F)C(F)(F)C(F)(F)C(F)(F)C(F)(F)C(F)(F)CNc1nc(S)nc(S)n1 [Example 11] | 0.62 | .largecircle. (sufficiently solved (1-10 wt %)) | Δ (slightly solved (1 wt % or less)) | .largecircle. (sufficiently solved (1-10 wt %)) | Δ (slightly solved (1 wt % or less)) | .largecircle. (sufficiently solved (1-10 wt %)) | 8.1 | 10.3 | 0.0021 |
